Holding throughout (assay): DTP human tumour cell line panel, 48 h
Assay [1] concerns 786-0 renal.
Assay [2] concerns A498 renal.
Assay [3] deals with HCT-116 colon.
Assay [4] deals with HOP-92 NSCLC.
The test system of assay [5] is K-562 leukemia.
The subject of assay [6] is NCI-H23 lung.
In assay [7] the test system is SNB-75 CNS.
Assay [8] concerns UO-31 renal.

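Growth conditions: 96-well plates. Treatment: test compound, 48 hours, 5 concentrations. Analysis: linear interpolation between bracketing concentrations; unreached endpoints set to highest concentration. GI50: concentration for 50% inhibition of growth. TGI marks complete inhibition of growth.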 Where only a bound is given, the exact number is not on record here.

As to `CN1CC[C@]2(C)c3cc(O)ccc3CC3CCCC1C32C` (some centres undefined), the TGI in assay [1], in assay [2], in assay [3], in assay [4], in assay [5] and in assay [6] was > 100 µM each time. The TGI in assay [7] and in assay [8] was > 100 µM throughout.

With `COc1ccc(S(=O)(=O)N/N=C/c2cc(I)cc([N+](=O)[O-])c2O)cc1OC`, the TGI was > 100 µM in assay [1]; > 100 µM in assay [2]; 46 µM in assay [4]; > 100 µM in assay [5]; 53.4 µM in assay [8].

As to `CN(C)C=[N+]=[N-]`, the TGI in assay [1], in assay [2], in assay [3], in assay [4], in assay [5] and in assay [6] was > 100 µM each time. Moreover, the TGI in assay [7] and in assay [8] was > 100 µM each time.

`c1ccc2cc3[s+]snc3cc2c1`: the total growth inhibition concentration (TGI) in assay [1], in assay [2], in assay [3], in assay [5], in assay [6] and in assay [7] was > 100 µM each time. Moreover, in assay [8], the TGI is > 100 µM.

As for `O=C(NCCCCCCNC(=O)OCCSCCn1cc(C(=O)NC(=O)OCc2ccccc2)c(=O)[nH]c1=O)OCCSCCn1cc(C(=O)NC(=O)OCc2ccccc2)c(=O)[nH]c1=O`, the TGI in assay [1], in assay [2], in assay [4], in assay [5], in assay [6] and in assay [8] was > 100 µM in each case.

With `Cc1[nH]c(=O)n2c(C)nnc2c1C(=O)Nc1cc(Cl)cc(Cl)c1`, the TGI in assay [1] was > 100 µM; in assay [3], > 100 µM; in assay [4] it was 64 µM; in assay [5], > 100 µM; in assay [6], 53 µM; in assay [7], 88.9 µM. In assay [8], the TGI is 68.2 µM.

Regarding `O=C(O)CNS(=O)(=O)c1ccc(NC(=O)CI)cc1`, the TGI was 28.6 µM in assay [1]; > 100 µM in assay [2]; 36.4 µM in assay [4]; 62.1 µM in assay [5]; 39.8 µM in assay [6]; 32.2 µM in assay [7]. The same compound came in with a TGI in assay [8] of 39.5 µM.

Consider `C[C@]12CCC(=O)C(O)=C1CC[C@@H]1C2CC[C@]2(C)Nc3c(cnn3-c3ccccc3)CC12` (some centres undefined), for which the TGI in assay [1], in assay [2], in assay [3], in assay [5], in assay [6] and in assay [7] was > 100 µM throughout. Besides, the TGI in assay [8] was > 100 µM.

As for `C/C=C1/CCC2c3[nH]c4ccccc4c3CCN2C1` (centres undefined), the TGI is > 100 µM in assay [1]; > 100 µM in assay [2]; > 100 µM in assay [3]; 86.6 µM in assay [4]; > 100 µM in assay [5]; > 100 µM in assay [6]. Also, the concentration for total growth inhibition (TGI) in assay [7] and in assay [8] was > 100 µM in each case.

For `COc1ccccc1C1c2cc3c(cc2OC(O)(CO)C1C(=O)O)OCO3` (centres undefined) (tested in a mixture with another compound), the TGI in assay [1], in assay [2], in assay [3], in assay [4], in assay [5] and in assay [6] was > 100 µM each time. In addition, the TGI in assay [7] and in assay [8] was > 100 µM throughout.

Take `C=C1C(=O)OC2C=C(CCC(C)=O)C(C)C(OC(C)=O)CC12` (centres undefined): the TGI in assay [1] came out at 21.4 µM; in assay [2], 30.1 µM; in assay [3], 21.2 µM; in assay [4], 12.9 µM; in assay [5], 44 µM; in assay [7], 24.4 µM. This compound showed a TGI in assay [8] of 26.6 µM.

Turning to `O=[N+]([O-])c1cc(C2SCc3nc4ccccc4n32)ccc1Cl` (centres undefined), the TGI in assay [1] is > 100 µM; in assay [2], 69.6 µM; in assay [3] it was 40.4 µM; in assay [4], 49.3 µM; in assay [5] it was > 100 µM; in assay [6] it was 78.1 µM. For the same compound, the values for the TGI in assay [7] and in assay [8] were > 100 µM and 58.6 µM, respectively.

In the case of `NCCN.NCCN.O=C([O-])CCl.O=C([O-])CCl.[Co+3].[O-][Cl+3]([O-])([O-])[O-]`, the GI50 in assay [1], in assay [2], in assay [3], in assay [4], in assay [5] and in assay [6] was > 100 µM throughout. In addition, the figures for the GI50 in assay [7] and in assay [8] were 74.7 µM and > 100 µM, respectively. For the same compound, the TGI in assay [1], in assay [2], in assay [3], in assay [4], in assay [5] and in assay [6] was > 100 µM in each case. Further, the TGI in assay [7] and in assay [8] was > 100 µM in each case.

Regarding `O=C(O)CCC(NC(=O)c1ccccc1)C(=O)O` (centres undefined), the TGI in assay [1], in assay [2], in assay [3], in assay [4], in assay [5] and in assay [6] was > 100 µM each time. Also, the TGI in assay [7] and in assay [8] was > 100 µM each time.

For `O=C1C2C=CC(C2)C(c2ccc(O)cc2)N1O` (centres undefined), the TGI in assay [1], in assay [2], in assay [3], in assay [4], in assay [5] and in assay [6] was > 100 µM each time. In addition, the TGI in assay [7] and in assay [8] was > 100 µM in each case.

As to `Cc1ccc([N+](=O)[O-])cc1NC(=O)c1cccc([N+](=O)[O-])c1O`, the TGI was > 100 µM in assay [1]; 48 µM in assay [2]; 96.6 µM in assay [5]; 48.4 µM in assay [6]; 43.7 µM in assay [7]; 36.2 µM in assay [8].

(Values after PubChem BioAssay (NCI).)
